# According to US12479829B2, “2-[2-methylazetidin-1-yl]-4-phenyl-6-(trifluoromethyl)-pyrimidine compounds” (Eli Lilly and Company, priority 2020, dated 2025):
# Assays:
# [1] = Pharmacokinetics in Sprague Dawley Rats; assay type: in vivo; conditions: rat; for clearance / half-life / bioavailability: Sprague-Dawley, plasma, IV 1 mg/kg; for bioavailability: fasted, PO 3 mg/kg; for oral bioavailability / total clearance: result in words
# Method: (§1) Liquid Chromatograph with Tandem Mass Spectrometry (LC-MS/MS) Method for Pharmacokinetic Assays: Samples are extracted using a protein precipitation by adding 180 μL of MeOH:ACN (1:1, v/v) containing an internal standard to 50 μL of plasma. Samples are then diluted with MeOH:Water (1:1, v/v) to get concentrations within standard curve range. Diluted samples are analyzed by LC-MS/MS using a Sciex API 4000 triple quadrupole mass spectrometer (Applied Biosystems/MDS; Foster City, CA) equipped with a TurboIonSpray interface, and operated in positive ion mode. The analytes are chromatographically separated using a ECHELON C18 4 um 20×2.1 mm column. LC conditions are Water/1 M ammonium bicarbonate, (2000:10, v/v) (Mobile Phase A), and MeOH/1 M ammonium bicarbonate, (2000:10, v/v) (Mobile Phase B).
# Pharmacokinetics in Sprague Dawley Rats
# (§2) The compound is administered by a single oral (PO; 3 mg/kg; volume of 10 mL/kg) or intravenous (IV; 1 mg/kg; volume of 1 mL/kg) dose in vehicle. Blood is collected from each animal at multiple time points between 0 and up to 24 hours post-dosage. The plasma concentrations of Example 2 and Example 3 are determined by a LC-MS/MS method as described above.
# Pharmacokinetics in Dogs = assay type: in vivo, Beagle Dogs; conditions: for oral bioavailability / total clearance: dog (in the rat [sic]), result in words
# Method: as §1
# as §2, with “(PO; 2” for “(PO; 3”, “of 2” for “of 10”
# human KHK-C = human KHK-C (Homo sapiens (Human), UniProt P50053); assay: KHK Enzyme Activity Assay for Human KHK-C; assay type: biochemical; conditions: fructose 250 μM, ATP 150 μM; F1P production by RapidFire MS; read-out: hKHK-C IC50
# human KHK-C, sequence (P50053 whole entry): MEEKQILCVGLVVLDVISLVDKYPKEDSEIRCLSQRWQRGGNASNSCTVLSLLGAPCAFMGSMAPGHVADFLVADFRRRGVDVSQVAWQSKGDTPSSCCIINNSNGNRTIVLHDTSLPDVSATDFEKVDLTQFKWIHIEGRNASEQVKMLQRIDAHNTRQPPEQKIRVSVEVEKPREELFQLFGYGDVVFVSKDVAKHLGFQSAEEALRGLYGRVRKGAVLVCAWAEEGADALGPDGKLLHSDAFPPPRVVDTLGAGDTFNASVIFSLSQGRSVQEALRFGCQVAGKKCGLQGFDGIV
# Method: (§3) KHK Enzyme Activity Assay for Human KHK-C and Human KHK-A
# (§4) The intrinsic potency for inhitibiton of KHK C or A activity may be measured using an enzymatic assay which measures the production of F1P. Compounds are prepared in DMSO and tested in a 10-point concentration curve, to create 3-fold serial dilutions of the compounds in a 96-well plate ranging from 20 μM to 1.02 nM. Enzyme is prepared in assay buffer [50 mM 4-(2-hydroxyethyl)piperazine-1-ethanesulfonic acid (HEPES), 10 mM potassium chloride, 100 mM magnesium chloride, 2 mM tris(2-carboxyethyl)phosphine (TCEP), 0.01% n-octyl glucoside] and incubated with compounds at RT for 15 min. The reaction is carried out in 100 μL volumes containing substrate concentrations of fructose (250 μM for KHK-C assay and 1.25 mM for KHK-A assay) and ATP (150 μM for both isoforms); which are further incubated at RT for 20 min. The reaction is then halted by the addition of stop buffer; consisting of 0.2% formic acid and 1 μg/ml ^13C6-fructose-6-phosphate (^13C6-F6P) internal standard. Plates are stored in −20° C. until RapidFire MS analysis.
# (§5) RapidFire MS Analysis for Quantitation of F1P
# (§6) An Agilent 300 RapidFire automated extraction system (Agilent, Santa Clara, CA) with three HPLC quaternary pumps is coupled to an Agilent 6495 triple quadrupole mass spectrometer (Agilent Technologies, Santa Clara, CA) equipped with an electrospray ionization (ESI) interface source. […]
# (§7) Solvent A, used for sample loading and washing, is 6 mM octylamine (Acros Organics 129495000) brought to pH 5.0 using acetic acid. […] Samples are sequentially analyzed by aspirating 10 μL onto the collection loop under vacuum directly from multiwell plates. […]
# (§8) The triple quadrupole mass spectrometer is equipped with an ESI source and analytes are monitored using selected reaction monitoring (SRM) in negative mode [M−H]−. F1P is monitored at m/z 259.02/96.9 and ^13C6-fructose-6-phospate is monitored at m/z 264.99/97. The area ratio values for F1P is calculated using ^13C6-fructose-6-phospate as internal standard.
# human KHK-A = human KHK-A (Homo sapiens (Human), UniProt P50053); assay: KHK Enzyme Activity Assay for Human KHK-A; assay type: biochemical; conditions: fructose 1.25 mM, ATP 150 μM; F1P production by RapidFire MS; read-out: hKHK-A IC50
# human KHK-A, sequence (P50053 other isoform, or with tags, fused parts or gaps): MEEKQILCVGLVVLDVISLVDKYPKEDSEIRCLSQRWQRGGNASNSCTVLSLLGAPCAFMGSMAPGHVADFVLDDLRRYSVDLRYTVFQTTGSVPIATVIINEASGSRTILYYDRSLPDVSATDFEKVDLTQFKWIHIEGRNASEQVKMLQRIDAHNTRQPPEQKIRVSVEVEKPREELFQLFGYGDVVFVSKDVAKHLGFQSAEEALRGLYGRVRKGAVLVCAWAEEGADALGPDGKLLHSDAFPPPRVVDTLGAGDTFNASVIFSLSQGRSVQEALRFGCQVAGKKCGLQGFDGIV
# Method: as §3, §4, §5, §6, §7, §8
# [2] = test system: cellular KHK in HepG2 liver cells; assay: KHK Cellular Activity Assay (conversion of fructose to F1P in HepG2 liver cells); assay type: cell-based; conditions: Homo sapiens, 8.33 mM D-Fructose-13C6, 3 h at 37° C.
# Method: An Agilent 300 RapidFire automated extraction system (Agilent, Santa Clara, CA) with three HPLC quaternary pumps is coupled to an Agilent 6495 triple quadrupole mass spectrometer (Agilent Technologies, Santa Clara, CA) equipped with an electrospray ionization (ESI) interface source. The RapidFire Mass Spec system is equipped with a reusable RapidFire C18 (type C) solid-phase extraction (SPE) cartridge (G9205A).
# Solvent A, used for sample loading and washing, is 6 mM octylamine (Acros Organics 129495000) brought to pH 5.0 using acetic acid. Solvent B, used for sample elution, is 20% water in ACN containing 0.1% formic acid. Samples are sequentially analyzed by aspirating 10 μL onto the collection loop under vacuum directly from multiwell plates. The 10 μL of sample is loaded onto the C18 cartridge and washed using solvent A at a flow rate of 1.25 mL/min for 5000 ms. The retained analytes are then eluted to the mass spectrometer using solvent B at a flow rate of 1.25 mL/min for 5000 ms. The system is re-equilibrated using solvent A at a flow rate of 1.25 mL/min for 2000 ms.
# as §8
# KHK Cellular Activity Assay
# Potency can be measured using a cellular assay for the inhibition of conversion of Fructose to F1P by cellular KHK. HepG2 liver cells are plated on 96-well cell culture plates in growth media [Dulbecco's Modified Eagle's medium (DMEM) high glucose, 10% heat-inactivated fetal bovine serum (HI FBS), 1×Penicillin/streptomycin] and allowed to attach overnight in a 37° C. incubator. The growth media is washed and replaced with assay media consisting of Gibco OptiMEM1 Reduced Serum Medium, 0.1% Casein, 8.33 mM D-Fructose-^13C6, and compound concentrations ranging from 100 μM to 0.0051 μM (10-point concentration curve). […]
# [3] = administered for 6 weeks; subjects with non-alcoholic fatty liver disease; cited from earlier work
# [4] = beagle, plasma, dog, fed, IV 1 mg/kg
clearance [1],half-life [1],bioavailability [1],oral bioavailability [1],total clearance [1],clearance (Pharmacokinetics in Dogs; [4]),half-life (Pharmacokinetics in Dogs; [4]),"half-life (Pharmacokinetics in Dogs; beagle, plasma, dog, fed, PO 2 mg/kg)","bioavailability (Pharmacokinetics in Dogs; beagle, plasma, dog, fed, PO 2 mg/kg, IV 1 mg/kg)",oral bioavailability (Pharmacokinetics in Dogs),total clearance (Pharmacokinetics in Dogs),IC50 (human KHK-C),IC50 (human KHK-A),IC50 [2],Compound,whole liver fat as measured by magnetic resonance imaging-proton density fat fraction [3]
12.7 mL/min/kg,177 min,69%,high,low,4.77 mL/min/kg,304 min,271 min,~96%,high,low,29.7 nM,23.4 nM,82.1 nM,"C[C@H]1CCN1c1nc(-c2ccc(C(=O)NC(CO)(CO)CO)cc2)cc(C(F)(F)F)n1 [Example 3, N-[2-Hydroxy-1,1-bis(hydroxymethyl)ethyl]-4-{2-[(2S)-2-methylazetidin-1-yl]-6-(trifluoromethyl)pyrimidin-4-yl}benzamide]",–
–,–,–,–,–,–,–,–,–,–,–,–,–,–,C[C@H]1CCN1c1nc(N2C[C@@H]3[C@@H](CC(=O)O)[C@@H]3C2)cc(C(F)(F)F)n1 [PF-06835919],reduces whole liver fat
5.57 mL/min/kg,385 min,65%,high,low,2.15 mL/min/kg,678 min,–,–,high,low,23.1 nM,12.7 nM,186 nM,"C[C@H]1CCN1c1nc(-c2ccc(C(=O)N3C[C@@H](O)[C@@H](O)C3)cc2)cc(C(F)(F)F)n1 [Example 2, [(3R,4S)-3,4-Dihydroxypyrrolidin-1-yl]-[4-{2-[(2S)-2-methylazetidin-1-yl]-6-(trifluoromethyl)pyrimidin-4-yl}phenyl]methanone]",–
–,–,–,–,–,–,–,–,–,–,–,22.6 nM,21.5 nM,911 nM,"C[C@H]1CCN1c1nc(-c2ccc(C(=O)O)cc2)cc(C(F)(F)F)n1 [Example 1, 4-{2-[(2S)-2-Methylazetidin-1-yl]-6-(trifluoromethyl)pyrimidin-4-yl}benzoic acid]",–
